Where a SMILES comes first, the peptide text is derived from it. Bridges are numbered along the chain shown (N, C = ends). The star is where a group is joined. DOTA = O=C(O)CN1CCN(CC(=O)O)CCN(CC(=O)*)CCN(CC(=O)O)CC1
Target: T1, ADAMTS4 (Homo sapiens, UniProt O75173)
T1 construct: This is consistent with the recombinant proteins, we used in the screening process; purchased BioTeZ Berlin-Buch GmbH 30 400 102
T1 sequence (O75173 213-685): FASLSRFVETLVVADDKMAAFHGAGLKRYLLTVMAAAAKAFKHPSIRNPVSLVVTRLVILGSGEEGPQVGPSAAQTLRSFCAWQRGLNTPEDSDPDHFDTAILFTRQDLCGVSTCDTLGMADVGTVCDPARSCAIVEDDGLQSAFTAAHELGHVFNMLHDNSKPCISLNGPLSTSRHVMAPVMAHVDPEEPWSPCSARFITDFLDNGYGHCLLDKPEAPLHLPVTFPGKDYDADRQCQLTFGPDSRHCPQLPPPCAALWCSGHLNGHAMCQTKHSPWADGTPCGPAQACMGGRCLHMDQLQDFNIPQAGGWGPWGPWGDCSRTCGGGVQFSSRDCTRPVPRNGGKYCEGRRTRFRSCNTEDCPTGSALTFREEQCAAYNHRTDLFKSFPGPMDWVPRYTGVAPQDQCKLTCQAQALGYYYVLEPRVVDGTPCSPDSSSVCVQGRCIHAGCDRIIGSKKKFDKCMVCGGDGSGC
Assay: MST of earlier manuscript version (RED-tris-NTA labeled protein)
Conditions: earlier manuscript version quoted in peer review file; RED-tris-NTA labeled ADAMTS4, FAM-5 labeled peptides; read-out: binding constant (KD)
Description: on the beads. Additionally, we could not find any traces of proteins in the MALDI-TOF-MS […]
We identified one candidate as the most promising binding peptide for ADAMTS4 with the sequence Ser- Cys*-Gly-Arg-Arg-Ser-Cys* (Supp. Fig. 1b, c).
5. “The representation of SPR data needs to be adjusted, additional experimental details have to be added to the Supplemental figures. Please, see the comments in Supplemental for details.” We apologize to the reviewer for this oversight. All data are now added to the supplemental material. SPR was only use for classification to determine whether the peptides represent potential […]
Page 8: For the resulting ADAMTS4- specific probe, we measured a binding constant of 38 nM […]
6. […] The data quality if […]
unfortunately too poor (the amplitude too low; minimal recommended amplitude is 3). Also, why were the FAM-5 labeled peptides used in the combination with the RED-tris-NTA labeled protein? […]
Additionally, we measured the same probe against ADAMTS1 and ADAMTS5 in the same concentration range, and we could not detect binding in this range (Supp. Fig. 2a). […]
R = Ranti−His−Ab ∗ MADAMTS4 ∗ Valencyanti−His−Ab we calculated a Rmax of 5524 µRIU. […]
Before and after the run, a blank was measured. […]
19. […] Using the fluorescence of the labeled […]
We added the sensogram and calculated the protein capture (please refer to question 16).

N=C(N)NCCC[C@@H]1NC(=O)[C@H](CCCNC(=N)N)NC(=O)[C@H](CO)NC(=O)[C@@H](N)CSSC[C@@H](C(=O)N[C@@H](CO)C(=O)NCC(=O)NCC(=O)N[C@@H](CO)C(=O)NCC(=O)NCC(=O)N[C@@H](CCCCNC(=O)CN2CCN(CC(=O)O)CCN(CC(=O)O)CCN(CC(=O)O)CC2)C(=O)NCC(N)=O)NC(=O)CNC1=O (Gd complex, metal not drawn) [ADAMTS4-specific probe] (H-CSRRGCSGGSGGK(DOTA)G-NH2; disulfide 1-6)
Kd: 38 nM

From publication PMC9126943, “ADAMTS4-specific MR probe to assess aortic aneurysms in vivo using synthetic peptide libraries” (Nature Communications, 2022)
